Experimental data taken from US6861419B2, “Substituted 1, 4-thiazepine and analogs as activators of caspases and inducers of apoptosis and the use thereof” (Cytovia, Inc., priority 2000, dated 2005).
Blank lines part the entries; values can stand above or below the molecule they belong to.

Tests used:
ZR-75-1 = test: Caspase cascade activation (N-(Ac-DEVD)-N'-ethoxycarbonyl-R110 fluorogenic substrate) in ZR-75-1 cells; type: cell-based; conditions: human breast cancer cell line ZR-75-1, 24 hours incubation with compound, 3 hour substrate incubation; read-out: Caspase Potency EC50 (nM) ZR-75-1
Protocol: (§1) Human breast cancer cell lines T-47D and ZR-75-1 were grown according to media component mixtures designated by American Type Culture Collection +10% fetal calf sera (FCS) (Life Technologies, Inc.) in a 5% CO2-95% humidity incubator as 37° C. The T-47 and ZR-75-1 cells were maintained at a cell density between 30 and 80% confluency at a cell density of 0.1 to 0.6×10^6 cells/mL. Cells were harvested at 600 xg and resuspended at 0.65×10^6 cells/mL into appropriate media +10% FCS. An aliquot of 45 μL of cells was added to a well of a 96-well microtiter plate containing 5 μL of a 10% DMSO in RPMI-1640 media solution containing 1.6 to 100 μM of test compound (0.16 to 10 μM final).
(§2) An aliquot of 45 μL of cells was added to a well of a 96-well microtiter plate containing 5 μL of a 10% DMSO in RPMI-1640 media solution without test compound as the control sample. The samples were mixed by agitation and then incubated at 37° C. for 24 hours in a 5% CO2-95% humidity incubator. After incubation, the samples were removed from the incubator and 50 μL of a solution w containing […] of N-(Ac-DEVD)-N′-ethoxycarbonyl-R110 (SEQ ID NO:1) fluorogenic substrate (Cytovia, Inc.; WO99/18856), 20% sucrose (Sigma), 20 mM dithiothreitol (DTT) (Sigma), 200 mM NaCl (Sigma), 40 mM Na piperazine-N,N′-bis[2-ethanesulfonic acid] (PIPES) buffer pH 7.2 (Sigma), and 500 μg/mL lysolecithin (Calbiochem) was added. The samples were mixed by agitation and incubated at room temperature. Using a fluorescent plate reader (Model 1420 Wallac Instruments), an initial reading (T=0) was made approximately 1-2 minutes after addition of the substrate solution, employing excitation at 485 nm and emission at 530 nm, to determine the background fluorescence of the control sample. After the 3 hour incubation, the samples were read for fluorescence as above (T=3 hours).
(§3) The Relative Fluorescence Unit (RFU) values were used to calculate the sample readings as follows: RFU(T=3h)−Control RFU(T=0)=Net RFU(T=3h)
(§4) The level of caspase cascade activation was determined by the ratio of the net RFU value for the test compound to that of the control samples. The EC50 (nM) was determined by a sigmoidal dose-response calculation (Prism 2.0, GraphPad Software, Inc.). The compounds of the invention were determined to have caspase cascade activating effects by proceeding as in Example 8.

T-47D = test: Caspase cascade activation (N-(Ac-DEVD)-N'-ethoxycarbonyl-R110 fluorogenic substrate) in T-47D cells; type: cell-based; conditions: T47D; human breast cancer cell line T-47D, 24 hours incubation with compound, 3 hour substrate incubation; read-out: Caspase Potency EC50 (nM) T-47D
Protocol: as §1, §2, §3, §4

SMILES: Cc1cc(O)c(C2=NCCSC(c3ccc(Cl)c(Cl)c3)C2)c(=O)o1 (stereo not shown) [Compound 79, 3-[7-(3,4-dichloro-phenyl)-2,3,6,7-tetrahydro-[1,4]thiazepin-5-yl]-4-hydroxy-6-methyl-pyran-2-one]
EC50 (ZR-75-1): 349 nM
EC50 (T-47D): 557 nM

SMILES: COc1cccc(C2CC(c3c(O)cc(C)oc3=O)=NCCS2)c1 (stereo not shown) [Compound 72, 4-hydroxy-3-[7-(3-methoxy-phenyl)-2,3,6,7-tetrahydro-[1,4]thiazepin-5-yl]-6-methyl-pyran-2-one]
EC50 (ZR-75-1): 1950 nM
EC50 (T-47D): 3050 nM

Other lines, results leading:

EC50 (ZR-75-1): 2080 nM
EC50 (T-47D): 3270 nM
SMILES: Cc1cc(O)c(C2=NCCSC(c3ccccc3Br)C2)c(=O)o1 (stereo not shown) [Compound 74, 3-[7-(2-bromo-phenyl)-2,3,6,7-tetrahydro-[1,4]thiazepin-5-yl]4-hydroxy-6-methyl-pyran-2-one]

EC50 (ZR-75-1): 163 nM
EC50 (T-47D): 345 nM
SMILES: CSc1ccc(C2CC(c3c(O)cc(C)oc3=O)=NCCS2)cc1 (stereo not shown) [Compound 70, 4-hydroxy-6-methyl-3-[7-(4-methylsulfanyl-phenyl)-2,3,6,7-tetrahydro-[1,4]thiazepin-5-yl]-pyran-2-one]

EC50 (ZR-75-1): 4210 nM
EC50 (T-47D): 6930 nM
SMILES: Cc1ccc(C2CC(c3c(O)cc(C)oc3=O)=Nc3ccccc3S2)cc1 (stereo not shown) [Compound 85, 4-hydroxy-6-methyl-3-(2-p-tolyl-2,3-dihydro-benzo[b][1,4]thiazepin-4-yl)-pyran-2-one]
